Measured values as given in the supplement of paper PMC10307832.

Legend:
Assay in all cases: relative viability (nuclei count vs DMSO), 5 days (fraction); higher = more cells survive
[1] = compound: C(C(=O)C(=O)O)Br [Bromopyruvate] + O=C(c1cc(Cc2n[nH]c(=O)c3ccccc23)ccc1F)N1CCN(C(=O)C2CC2)CC1 [Olaparib] (partner 8 µM)
In short: (§1)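 Relative viability divides the nuclei count in treated wells by that in vehicle wells. Lung cancer cell lines were seeded in 1536-well plates, dosed by pin tool the next day, and fixed and stained after 5 days in one step with final 0.05% Triton X-100, 1% formaldehyde and 1 ug/ml Hoechst. Dosing was a single drug or a fixed anchor-drug dose plus five library-drug doses (not always all listed) in √10 steps, and values are medians of duplicate plates imaged at 4×.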

[2] = compound: CC(O)(CS(=O)(=O)c1ccc(F)cc1)C(=O)Nc1ccc(C#N)c(C(F)(F)F)c1 [Bicalutamide] + O=C(CCCCCCC(=O)Nc1ccccc1)NO [Vorinostat] (partner 1 µM)
In short: as §1

[3] = compound: C(C(=O)C(=O)O)Br [Bromopyruvate] + Nc1nc2[nH]cc(CCc3ccc(C(=O)N[C@@H](CCC(=O)O)C(=O)O)cc3)c2c(=O)[nH]1 [Pemetrexed] (partner 0.2 µM)
In short: as §1

[4] = compound: CC(O)(CS(=O)(=O)c1ccc(F)cc1)C(=O)Nc1ccc(C#N)c(C(F)(F)F)c1 [Bicalutamide] + CS(=O)(=O)N1CCN(Cc2cc3nc(-c4cccc5[nH]ncc45)nc(N4CCOCC4)c3s2)CC1 [Pictilisib] (partner 1 µM)
In short: as §1

Cell Line | relative viability ([1]; first compound 1 µM) | relative viability ([1]; first compound 3.162 µM) | relative viability ([1]; first compound 10 µM) | relative viability ([1]; first compound 31.62 µM) | relative viability ([1]; first compound 100 µM) | relative viability ([2]; first compound 0.08 µM) | relative viability ([2]; first compound 0.253 µM) | relative viability ([2]; first compound 0.8 µM) | relative viability ([2]; first compound 2.53 µM) | relative viability ([3]; first compound 1 µM) | relative viability ([3]; first compound 3.162 µM) | relative viability ([3]; first compound 10 µM) | relative viability ([3]; first compound 31.62 µM) | relative viability ([3]; first compound 100 µM) | relative viability ([4]; first compound 0.08 µM) | relative viability ([4]; first compound 0.253 µM) | relative viability ([4]; first compound 0.8 µM) | relative viability ([4]; first compound 2.53 µM)
LXF-289 | 1.13 | 1.03 | 1.1 | 1.15 | 1.04 | 0.818 | 0.734 | 0.797 | 0.698 | 0.874 | 0.92 | 0.899 | 0.958 | 0.941 | 0.759 | 0.728 | 0.855 | 0.757
NCI-H23 | 0.318 | 0.316 | 0.321 | 0.399 | 0.196 | 0.758 | 0.498 | 0.697 | 0.465 | 0.71 | 0.76 | 0.808 | 0.619 | 0.812 | 0.476 | 0.446 | 0.633 | 0.378
NCI-H322M | 0.715 | 0.82 | 0.743 | 0.737 | 0.687 | 0.858 | 0.898 | 0.995 | 1.11 | 0.614 | 0.663 | 0.592 | 0.585 | 0.637 | 0.469 | 0.53 | 0.573 | 0.55
NCI-H522 | 0.615 | 0.54 | 0.693 | 0.643 | 0.477 | 1.01 | 0.862 | 0.99 | 0.77 | 0.902 | 1.25 | 1.24 | 1.07 | 1.11 |  |  |  | 
NCI-H727 | 0.666 | 0.707 | 0.764 | 0.79 | 0.634 | 1.38 | 1.08 | 1.24 | 1.19 |  |  |  |  |  | 0.415 | 0.456 | 0.377 | 0.423
NCI-H1299 | 0.937 | 0.951 | 0.963 | 0.979 | 0.882 |  |  |  |  |  |  |  |  |  | 0.909 | 0.698 | 0.823 | 0.492
NCI-H1563 |  |  |  |  |  |  |  |  |  | 0.815 | 0.717 | 0.823 | 0.674 | 0.757 | 0.641 | 0.596 | 0.644 | 0.599
NCI-H1648 | 0.731 | 0.92 | 0.978 | 1.11 | 0.982 |  |  | 0.698 | 0.425 | 0.661 | 0.813 | 0.689 | 0.651 | 0.728 |  |  |  | 
NCI-H1703 | 0.648 | 0.418 | 0.335 | 0.633 | 0.502 |  |  |  |  |  |  |  |  |  | 0.235 | 0.261 | 0.236 | 0.231
NCI-H1792 | 0.0016 | 0.469 | 0.532 | 0.582 | 0.68 |  |  |  |  | 0.904 | 0.997 | 0.699 | 0.894 | 0.983 | 0.299 | 0.224 | 0.284 | 0.245
NCI-H2342 | 0.477 | 0.367 | 0.376 | 0.377 | 0.344 | 0.759 | 0.767 | 0.853 | 0.801 | 0.848 | 0.779 | 0.847 | 0.636 | 0.74 |  |  |  | 
SW 900 | 0.892 | 0.874 | 0.936 | 0.8 | 0.821 | 0.601 | 0.281 | 0.394 | 0.398 | 0.487 | 0.463 | 0.555 | 0.446 | 0.472 |  |  |  | 
